{"source": "ChEMBL document CHEMBL1921744", "about": "“Lipophosphonoxins: new modular molecular structures with significant antibacterial properties” (J Med Chem, 2011)", "tested_on": "Mycobacterium tuberculosis", "experiment": "Antimycobacterial activity against drug-resistant Mycobacterium tuberculosis", "format": "functional", "data": [{"smiles": "CO[C@@H]1[C@@H](OC)[C@H](C)O[C@@H](OC(=O)C[C@@H](C)CC(=O)O[C@@H](CCCCCCCCCCCC(C)C)CC(=O)O[C@H]2CN(C)[C@@H]([C@H](O[C@@H]3O[C@H](CN)[C@@H](O)[C@H]3O)[C@H]3O[C@@H](n4ccc(=O)[nH]c4=O)[C@H](O)[C@@H]3O)C(=O)N(C)[C@@H]2C(=O)O)[C@@H]1OC", "note": "[CAPRAZAMYCIN B]", "values": [{"measurement": "MIC", "value": 3.13, "unit": "µg/mL"}]}]}
